Source: ChEMBL document CHEMBL3588855, “Different structures of the two peroxisome proliferator-activated receptor gamma (PPARγ) ligand-binding domains in homodimeric complex with partial agonist, but not full agonist” (Bioorg Med Chem Lett, 2015)

Tests used:
[1] = target: T1, Peroxisome proliferator-activated receptor gamma (Homo sapiens) (UniProt P37231); test: Agonist activity at human GAL4-tagged-PPARgamma transfected in monkey COS1 cells by transient transfection/luciferase reporter gene assay relative to 30 uM pioglitazone; format: cell-based; conditions: COS-1
T1 sequence (whole entry): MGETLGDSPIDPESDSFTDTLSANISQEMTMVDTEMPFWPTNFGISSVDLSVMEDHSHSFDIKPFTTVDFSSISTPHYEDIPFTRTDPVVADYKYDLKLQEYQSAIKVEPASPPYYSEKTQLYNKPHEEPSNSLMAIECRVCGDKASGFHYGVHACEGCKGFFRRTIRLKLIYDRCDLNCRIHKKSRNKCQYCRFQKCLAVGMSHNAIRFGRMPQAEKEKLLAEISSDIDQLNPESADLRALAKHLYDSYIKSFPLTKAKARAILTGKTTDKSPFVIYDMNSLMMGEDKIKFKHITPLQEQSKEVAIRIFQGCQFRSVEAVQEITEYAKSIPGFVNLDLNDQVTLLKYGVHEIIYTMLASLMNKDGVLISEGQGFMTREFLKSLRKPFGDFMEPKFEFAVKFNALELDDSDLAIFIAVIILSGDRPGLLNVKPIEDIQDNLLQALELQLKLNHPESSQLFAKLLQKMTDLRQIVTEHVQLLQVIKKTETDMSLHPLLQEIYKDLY

[2] = target: T1, Peroxisome proliferator-activated receptor gamma (Homo sapiens); test: Agonist activity at human GAL4-tagged-PPARgamma transfected in monkey COS1 cells by transient transfection/luciferase reporter gene assay relative to 10 uM rosiglitazone; format: cell-based; conditions: COS-1

- %max [1]: 50%
- %max [2]: 50%
Compound: CCCOc1ccc(C(=O)NS(=O)(=O)c2ccccc2)cc1CNC(=O)c1ccc(-c2ncccn2)cc1
